Source: patent US9073899B2, “Solid forms of dabigatran etexilate mesylate and processes for their preparation” (ESTEVE QUÍMICA, S.A., priority 2012, dated 2015)
“Also recorded” adds a separate entry of the source. Counter-ions that a name gives are not always drawn.

Assays:
Format in all cases: physicochemical
[1] = Stability assay: slurrying in acetonitrile, solid form by powder XRD; details: acetonitrile 1 mL, 50 mg, 24° C. (room temperature), stirred 48 hours
Procedure: (§1) Powder diffraction patterns were acquired using a PANalytical, X'Pert diffractometer using CuKalpha-radiation. The system was configured in theta-theta, transmission geometry equipped with a focusing X-ray mirror and PIXcel detector.
(§2) Dabigatran etexilate mesylate, Form I, 50 mg, was added to acetonitrile (1 mL) with stirring, at 24° C. The product was not soluble under these conditions. The mixture was stirred for 48 hours, filtered and analysed to be Form A of dabigatran etexilate mesylate as determined by powder XRD.
(§3) The solubility of the amorphous form is therefore >50 mg/mL. After approximately 5 minutes a solid crystallized. The mixture was stirred for 48 hours, filtered and analysed to be Form A of dabigatran etexilate mesylate as determined by powder XRD.
(§4) Dabigatran etexilate mesylate, Form A, 50 mg, was added to acetonitrile (1 mL) with stirring, at 24° C. The product was not soluble under these conditions. The mixture was stirred for 48 hours, filtered and analysed to be Form A of dabigatran etexilate mesylate as determined by powder XRD.

[2] = Solubility in acetonitrile (50 mg added to 1 mL with stirring); details: for solubility observation (in words): 24° C. / room temperature (20-25° C.)
Procedure: as §2, §3, §4

[3] = Solvent mediated transformation of mixtures of forms in 2-propanol, solid form by powder XRD; details: 2-propanol 0.6 mL, ambient temperature, orbital agitator
Procedure: as §1
(§5) Dabigatran etexilate mesylate, a mixture of Form I, 17 mg and Form A, 15 mg, was suspended in 2-propanol (0.6 mL) and the mixture agitated at ambient temperature using an orbital agitator for 64 hours. The mixture was filtered, dried under vacuum and analysed to be purely Form A of dabigatran etexilate mesylate as determined by powder XRD.
as §5, with “II, 10” for “I, 17”, “7 days.” for “64 hours.”

solid form after slurrying (powder XRD) [1]	Compound	solubility observation (in words) ([2]; 50 mg in 1 mL acetonitrile)	further results
Form A; also recorded: stable	CCCCCCOC(=O)NC(=N)c1ccc(NCc2nc3cc(C(=O)N(CCC(=O)OCC)c4ccccn4)ccc3n2C)cc1 [dabigatran etexilate mesylate Form A, dabigatran etexilate mesylate]	not soluble; also recorded: at least partly insoluble	
converted entirely into Form A	CCCCCCOC(=O)NC(=N)c1ccc(NCc2nc3cc(C(=O)N(CCC(=O)OCC)c4ccccn4)ccc3n2C)cc1 [dabigatran etexilate mesylate Form I, dabigatran etexilate mesylate]	not soluble; also recorded: at least partly insoluble	

The remaining lines, values behind:

Compound	solid form after slurrying (powder XRD) [1]	solubility observation (in words) ([2]; 50 mg in 1 mL acetonitrile)	further results
CCCCCCOC(=O)NC(=N)c1ccc(NCc2nc3cc(C(=O)N(CCC(=O)OCC)c4ccccn4)ccc3n2C)cc1 [amorphous dabigatran etexilate mesylate, dabigatran etexilate mesylate]	Form A	complete dissolution almost immediately; also recorded: completely dissolved	time until a solid crystallized from the acetonitrile solution ([2]; 50 mg in 1 mL acetonitrile, 24° C., after complete dissolution): approximately 5 minutes; solubility ([2]; organic solvent or mixture, thermodynamic from solid, acetonitrile, 24° C., 50 mg in 1 mL): > 50 mg/mL
CCCCCCOC(=O)/N=C(\N)c1ccc(NCc2nc3cc(C(=O)N(CCC(=O)OCC)c4ccccn4)ccc3n2C)cc1 [mixture of Form I and Form A, dabigatran etexilate mesylate]			solid form after slurrying mixture of forms (powder XRD) ([3]; 64 hours): purely Form A; also recorded: converted entirely into Form A
CCCCCCOC(=O)/N=C(\N)c1ccc(NCc2nc3cc(C(=O)N(CCC(=O)OCC)c4ccccn4)ccc3n2C)cc1 [mixture of Form II and Form A, dabigatran etexilate mesylate]			solid form after slurrying mixture of forms (powder XRD) ([3]; 7 days): purely Form A; also recorded: converted entirely into Form A
